Source: patent publication US12324805B2, “Cancer treatment” (LDN Pharma Limited, priority 2017, dated 2025)
“Also recorded” adds a separate entry of the source.

How the values were obtained:
CB2 = experiment: Western blot of CB2 levels in MCF7 cells after drug treatment; assay type: cell-based; settings: two days; for levels of CB2 relative to controls: LDN 10 nM, 6BN 1 μM or 10 μM, Western blot densitometry normalised to GAPDH, vs no-drug controls
Description: Levels of Bcl2-associated death promoter (BAD), p21 protein, the opioid receptors kappa 1 (OPRK1) and mu 1 (OPRM1), and the cannabinoid receptors CBR1 (CB1) and CBR2 (CB2) are visualised by Western blot (left) against GAPDH as a loading control, and quantified via density analysis relative to GAPDH (right).
One illustrative and non-limiting experiment was carried out on cultures of MCF7 cells. In brief, either LDN at 10 nM or 6BN at 1 μM or 10 μM was administered in vitro to a culture for two days, after which the expression levels of BAD, p21, opioid receptors kappa and mu, CB1, CB2, and GAPDH (as a loading control) were analysed via Western blot and subsequent quantification via density measurement of the bands.
In full, MCF7 cells were seeded into 6-well plates at a density of 1×10^5/well and left to adhere over-night. Naltrexone (10 nM) or 6-β-naltrexol (1 μM or 10 μM) were added to the cells before harvesting cells for western blot analysis. Primary probing was performed with specific antibodies generated against BAD, p21, OPRK1, […], CBR-1 and CBR-2. […] Anti-GAPDH was used as a loading control. All antibodies were used at a dilution of 1:1000, followed by the appropriate HRP conjugated secondary antibodies also at a dilution of 1:1000. Bands were visualised by the SuperSignal chemiluminescent detection system, and densitometry of band intensity was determined using Adobe Photoshop CS3, v10.0, and normalised to the loading control.

MCF7 cells = experiment: Two-stage sequential treatment of MCF7 cells, cell number and viability (trypan blue); assay type: cell-based; settings: LDN (10 nM) or 6BN (10 μM) for 48 h, then cannabinoid (cannabidiol 10 μM) for 48 h, compared with other sequences
Description: Each treatment lasted four days and consisted of two days of treatment with the first agent (UN=control, LDN=Low Dose Naltrexone at 10 nM CBD=Cannabidiol, 6BN=6-β-naltrexol) before the second-named agent was introduced for a further two days.
Another illustrative and non-limiting experiment was carried out on cultures of MCF7 cells. In brief, the cultures were treated with LDN or 6BN for two days, after which a cannabinoid was administered for a further two days. Cell number and viability were assessed on day four. The sequence of the administration for each therapeutic agent was reversed and the experiment repeated.
In full, MCF7 cells were seeded into 6-well plates at a density of 1.5×10^4/well and left to adhere. Cells were then cultured with naltrexone (10 nM), 6-β-naltrexol (10 μM) or cannabidiol (10 μM). Drug-containing media was removed after 48 h, and cells were rinsed gently with drug-free medium. Fresh culture medium was then added to the cells supplemented with either naltrexone (10 nM), 6-β-naltrexol (10 μM) or cannabidiol (10 μM), as indicated in the graph. Cell number and viability were assessed a further 48 h later, with percentages of live and dead cells being discriminated by trypan blue dye exclusion. Data were then consolidated to compare the effect of sequence on overall effect.

SMILES	levels of CB2 relative to controls (CB2)	inhibition of cancer cell proliferation, effect of schedule (MCF7 cells)	rise in CB2 compared among the three treatments (CB2; 10 μM 6BN compared with 1 μM 6BN and 10 nM LDN)
O=C1CC[C@@]2(O)[C@H]3Cc4ccc(O)c5c4[C@@]2(CCN3CC2CC2)[C@H]1O5 [LDN, 17-cyclopropylmethyl-4.5α-epoxy-3,14-dihydroxymorphinan-6-one]	significant increase; also recorded: increased significantly	most effective; also recorded: more effectively; also recorded: greater effect	
Oc1ccc2c3c1OC1C(O)CC[C@@]4(O)[C@@H](C2)N(CC2CC2)CC[C@]314 (some centres unmarked) [6BN, N-cyclopropylmethyl-7,8-dihydro-14-hydroxynorisomorphine]	significant increase	most effective; also recorded: greater effect	highest
